Measured values as given in patent US10653676B2 (Dana-Farber Cancer Institute, Inc., priority 2010, dated 2020).

What was measured:
UCH-L3 = molecular target: T1, UCH-L3 (Homo sapiens, UniProt P15374); experiment: deubiquitinating enzyme assay with UCH-L3; type: biochemical; details: in vitro
T1 sequence (P15374 1-230): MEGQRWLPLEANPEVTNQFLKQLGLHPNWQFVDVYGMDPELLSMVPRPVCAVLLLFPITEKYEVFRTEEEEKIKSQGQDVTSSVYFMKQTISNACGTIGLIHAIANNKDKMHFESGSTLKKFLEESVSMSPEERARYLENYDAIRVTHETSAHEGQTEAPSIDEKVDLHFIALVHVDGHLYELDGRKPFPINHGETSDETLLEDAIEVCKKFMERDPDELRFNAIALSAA
Method: The in vitro enzymatic assays were performed using purified proteins from Sf9 cells as described previously (Cohn et al.). The assays using ubiquitin-AMC (Ub-7-amido-4-methylcoumarin; Boston Biochem) as substrate was carried out in a reaction buffer containing 20 mM HEPES-KOH (pH 7.8), 20 mM NaCl, 0.1 mg/ml ovalbumin, 0.5 mM EDTA and 10 mM dithiothreitol. The fluorescence was measured by FluoStar Galaxy Fluorometer (BMG Labtech). For the Ub-vinylsulfone (VS) assay, the proteins were incubated with Ub-VS at 0.5 μM final concentration for 1 h at 30° C., followed by the immunoblotting analysis.
To examine the specificity of C527 in USP1/UAF1 inhibition, its ability to inhibit other DUB enzymes in vitro was examined. […] Moreover, the active complex of USP12 contains an additional WD40 subunit (WDR20). […] UCH-L1 and UCH-L3 are members of a different subclass of deubiquitinating enzymes, referred to as the ubiquitin-carboxy terminal hydrolases (Mermerian A H, Case A, Stein R L, Cuny G D. Structure-activity relationship, kinetic mechanism, and selectivity for a new class of ubiquitin C-terminal hydrolase-L1 (UCH-L1) inhibitors. Bioorg Med Chem Lett. 2007; 17:3729-3732). […] Taken together, C527 is a pan-deubiquitinating enzyme inhibitor in vitro, though it has some specificity for the USP subfamily of DUBs, compared to the UCH subfamily.

USP1/UAF1 complex = molecular target: T2, USP1/UAF1 complex (Homo sapiens, UniProt O94782, G670A/G671A); experiment: high throughput screening for inhibitors of USP1 deubiquitinating activity; type: biochemical; details: library of approximately 150,000 compounds
T2 construct: This modified full length USP1 clone was PCR amplified and subcloned into pFastBac-HT vectors; His tag (N); made in house; host or cells: Sf9 insect cells (baculovirus)
Method: The ubiquitin-Rho based enzyme assay for high throughput screening was established in a 384-well format. The reaction buffer containing and USP1/UAF1 complex were added in 384 well plates using automated liquid handling robot-Bio-Tek Microfill (Bio-Tek Instrments Inc., VT), followed by addition of the compounds (in DMSO) from the compound library plates to wells using a pin transfer robotic system at a final concentration of 10 μM. The reaction was composed of 0.1 nM purified USP1/UAF complex, 75 nM ubiquitin Rhodamine (Ub-Rho, Boston Biochem, U-600) and 2 μM ubiquitin. Fluorescence was monitored in a FluoStar Galaxy Fluorometer (BMG Labtech). Fluorescence emission at 535 nm (λex=485 nm) was measured in an automated plate reader Envision 2 (Perkin Elmer, Mass.).
In order to develop a highly sensitive assay with easy readout for high throughput detection, the fluorogenic compound Ubiquitin-7-amido-4-methylcoumarin (AMC-Ub, Boston Biochem) was used as a substrate for USP1/UAF1 enzyme complex. USP1 catalyzes the cleavage of AMC-Ub, releasing free AMC moiety, which leads to increase in fluorescence emission at 460 nm (λex=380 nm). Dang et al. (1998) Biochemistry 37:1868-79. Catalytic activity towards AMC-Ub increases 35 fold compared to USP1 enzyme alone. Initial enzyme assay development was performed in 96-well plates with 100 μl reaction volume containing 20 mM HEPES-KOH, 0.1 mg/ml ovalbumin (Sigma), 0.5 mM EDTA, and 10 mM DTT. 2.5 nM USP1/UAF1 enzyme complex was mixed with the reaction buffer, incubated at 37° C. for 10 minutes and then 0.3 μM AMC-Ub was added. Fluorescence was measured using a Fluostar Galaxy Fluorometer (BMG Labtech Inc.).
Once the preliminary enzyme assay was established in 96-well format, it was optimized for 384 wells for high throughput screening (HTS) of inhibitors. The major points to be considered were the volume of the reaction and amount of AMC-Ub substrate to be used in the assay. Since the price of AMC-Ub is very high, in order to make it a feasible assay for HTS, lowest workable amount of the AMC conjugate was used. Reaction volume was minimized to 30 μl in order to meet the recommendation of ICCB-L screening facility (Harvard). In the preliminary optimization experiment, a series of pilot experiments were performed with varying AMC-Ub concentrations (0.025 μM to 0.2 μM), along with the varying concentration of USP1/UAF1 complex (0.2 nM to 3.2 nM). […] After incubating the enzyme and buffer at 37° C. for 10 minutes, AMC-Ub was added and fluorescence emission at 460 nm (λex=380 nm) was measured in an automated plate reader Envision 2 (Perkin Elmer). Fluorescence reading for all time points up to one hour was noted and the data for different AMC-Ub concentration range was plotted with each USP1/UAF1 enzyme complex concentration. […]

T2 sequence (O94782 whole entry G670A/G671A): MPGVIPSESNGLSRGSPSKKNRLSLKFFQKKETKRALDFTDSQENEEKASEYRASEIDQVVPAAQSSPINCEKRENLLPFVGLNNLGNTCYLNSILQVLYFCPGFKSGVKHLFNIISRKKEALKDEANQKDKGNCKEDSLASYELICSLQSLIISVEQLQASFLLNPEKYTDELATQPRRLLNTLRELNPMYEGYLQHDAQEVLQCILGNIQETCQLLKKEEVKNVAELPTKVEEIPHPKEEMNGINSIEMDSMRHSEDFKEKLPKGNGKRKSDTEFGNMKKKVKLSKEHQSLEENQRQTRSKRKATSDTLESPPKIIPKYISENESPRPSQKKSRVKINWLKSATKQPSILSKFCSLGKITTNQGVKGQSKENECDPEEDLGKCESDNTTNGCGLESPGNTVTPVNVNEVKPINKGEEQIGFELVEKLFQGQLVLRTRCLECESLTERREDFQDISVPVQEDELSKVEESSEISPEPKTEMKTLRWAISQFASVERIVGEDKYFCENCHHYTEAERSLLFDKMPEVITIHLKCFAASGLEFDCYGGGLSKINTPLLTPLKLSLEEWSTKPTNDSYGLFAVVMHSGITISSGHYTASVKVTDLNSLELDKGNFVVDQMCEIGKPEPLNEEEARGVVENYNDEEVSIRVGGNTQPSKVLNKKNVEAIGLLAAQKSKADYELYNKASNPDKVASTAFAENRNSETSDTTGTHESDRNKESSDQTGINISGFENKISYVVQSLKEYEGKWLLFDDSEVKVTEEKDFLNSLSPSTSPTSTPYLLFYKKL
T2 sequence (Q8TAF3 whole entry partner): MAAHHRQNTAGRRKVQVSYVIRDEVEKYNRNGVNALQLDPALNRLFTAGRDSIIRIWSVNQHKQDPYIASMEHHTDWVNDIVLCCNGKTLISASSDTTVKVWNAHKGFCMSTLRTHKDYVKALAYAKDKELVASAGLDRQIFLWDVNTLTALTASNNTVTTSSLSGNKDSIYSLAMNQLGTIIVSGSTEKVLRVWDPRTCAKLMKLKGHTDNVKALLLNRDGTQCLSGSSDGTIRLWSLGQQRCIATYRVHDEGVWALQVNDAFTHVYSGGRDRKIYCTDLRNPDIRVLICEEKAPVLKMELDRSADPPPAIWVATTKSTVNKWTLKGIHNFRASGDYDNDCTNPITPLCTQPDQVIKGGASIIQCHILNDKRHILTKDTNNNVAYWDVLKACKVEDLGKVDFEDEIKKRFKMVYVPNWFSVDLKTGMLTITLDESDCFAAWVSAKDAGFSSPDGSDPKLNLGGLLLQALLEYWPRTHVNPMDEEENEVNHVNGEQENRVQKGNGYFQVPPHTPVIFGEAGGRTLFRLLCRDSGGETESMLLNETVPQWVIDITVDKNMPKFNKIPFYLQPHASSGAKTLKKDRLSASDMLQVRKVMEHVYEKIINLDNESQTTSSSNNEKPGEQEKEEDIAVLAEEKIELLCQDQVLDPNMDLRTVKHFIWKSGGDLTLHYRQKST

SMILES: O=C1c2ccccc2C(=O)c2oc(-c3ccc(F)cc3)nc21 [Formula IV (527)]
- inhibitory effect on UCH-L3 (UCH-L3): considerably less inhibitory effect
- identified as inhibitor of USP1 in initial in vitro screening (USP1/UAF1 complex): inhibitors of USP1
